Assay results published in patent US10759826B2, “15β-substituted estrone derivatives as selective inhibitors of 17β-hydroxysteroid-dehydrogenases, method of preparation and use thereof” (USTAV ORGANICKE CHEMIE A BIOCHEMIE AV CR, V.V.I., priority 2016, dated 2020).
pIC50, pKi: −log10 of the molar value. Where two headings read alike, the source gives them in different places.

Assays:
human 17βHSD type 5 = target: T1, human 17βHSD type 5 (Homo sapiens, UniProt P42330); assay: Inhibition of recombinant 17βHSD type 5, tritium-labeled substrate conversion; format: biochemical; details: 1 μmol · l^−1 test substance
T1 construct: made in house; host or cells: bacteria (Escherichia coli); supernatant of the lysate
T1 sequence (P42330 1-323): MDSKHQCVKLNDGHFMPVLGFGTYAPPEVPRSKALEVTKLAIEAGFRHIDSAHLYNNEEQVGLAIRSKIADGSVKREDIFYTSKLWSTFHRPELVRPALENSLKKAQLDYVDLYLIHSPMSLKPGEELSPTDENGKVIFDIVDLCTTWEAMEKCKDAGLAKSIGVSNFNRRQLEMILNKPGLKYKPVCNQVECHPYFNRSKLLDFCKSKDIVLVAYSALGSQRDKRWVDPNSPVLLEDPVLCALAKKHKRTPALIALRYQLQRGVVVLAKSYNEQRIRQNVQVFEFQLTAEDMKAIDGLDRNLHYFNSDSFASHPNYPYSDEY
Method: (§1) The inhibitory activity of the test substances was determined for individual isoenzymes from the 17βHSD family, specifically these were the types 1, 2, 3, 4, 5 and 7. Escherichia coli and mammalian cells expression systems were used for recombinant expression of individual isozymes of human 17βHSD. Only in the case of 17HSD5 the enzyme was partially purified and supernatant obtained by centrifugation of the bacterial lysate was used for testing. Systems expressing specific 17βHSD type were suspended in a reaction buffer and incubated with tritium-labeled substrates and respective cofactors at 37° C. in two parallel tests: the control arrangement (DMSO without the inhibitor) and the test arrangement (DMSO with the inhibitor). DMSO serves as a negative control in this case. After 20-30% of the substrate was converted by the activity of the enzyme to the product in a control test, both tests were terminated. Substrate and product from the test arrangement were isolated by SPE (solid phase extraction), and then separated by reverse phase HPLC. Substrate conversion was determined by integration of the signals of the substrate and product, and was expressed in %. For the purposes of the subsequent calculation of enzyme inhibition, the conversion of the control test was designated as 0% inhibition. All tests were performed in triplicates. IC50 values were subsequently determined by a standard method using the “One Ligand Binding” model of SigmaPlot kinetics module (Schustera et. al. J. Ster. Biochem. Mol. Biol. 2011, 125, 148; Möller et. al. Biioorg. Med. Chem. Lett. 2009, 19, 6740; Möller et. al. PLoS One, 2010, 5, 6, e10969).

HCT116p53 wt = assay: MTT cytotoxicity assay, HCT116p53 wt; format: cell-based; details: Homo sapiens
Source text: (§2) Compounds 5, 6, 7, 9, 14 and 15 were used for evaluation of antitumor activity. MTT cytotoxicity assay was used in vitro on cell lines derived from normal tissues and from tumors. Specifically, these were the K562 line (human myeloid leukemia), K562-Tax (human myeloid leukemia resistant to taxol and overexpressing PgP protein for multidrug resistance), CEM (T-lymphoblastic leukemia), CEM-DNR bulk (T-lymphoblastic leukemia resistant doxorubicin, lacking the expression of the target gene for inhibitors of topoisomerase II alpha), A549 line (human lung adenocarcinoma), HCT116p53 wt (human colon cancer), HCT116p53−/− (human colon cancer, mutant p53), U2OS line of human osteosarcoma and two fibroblast lines MRC5 and BJ as examples of non-tumor cells. Expression characteristics, profiles of susceptibility to classical antitumor drugs and methodology of the MTT cytotoxicity assay were repeatedly published (e.g. Noskova et al. Neoplasma 2002, 49, 418; S̆arek et. al. J. Med. Chem. 2003, 46, 25, 5402).

MRCS = assay: MTT cytotoxicity assay, MRC5 fibroblasts; format: cell-based; details: Homo sapiens, Fibroblast, non-tumor fibroblasts
Source text: as §2

A549 = assay: MTT cytotoxicity assay, A549; format: cell-based; details: Homo sapiens
Source text: as §2

human 17βHSD1 [1] = target: T2, human 17βHSD1 (Homo sapiens, UniProt P14061); assay: 17βHSD inhibition in CHO cells transfected with human 17βHSD1, E1 in supernatant; format: cell-based; parameters: expressed in transfected cells; details: 10 μmol·l^−1
T2 sequence (P14061 1-328): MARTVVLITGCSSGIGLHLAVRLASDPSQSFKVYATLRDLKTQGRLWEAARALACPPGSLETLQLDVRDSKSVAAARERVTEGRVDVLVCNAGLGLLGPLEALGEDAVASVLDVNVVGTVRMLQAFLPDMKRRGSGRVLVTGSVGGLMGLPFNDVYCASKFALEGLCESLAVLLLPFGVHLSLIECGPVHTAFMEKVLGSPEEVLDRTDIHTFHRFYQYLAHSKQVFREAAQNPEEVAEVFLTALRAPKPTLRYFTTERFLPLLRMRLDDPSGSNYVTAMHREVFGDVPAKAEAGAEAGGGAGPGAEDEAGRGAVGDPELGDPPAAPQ
Method: (§3) For this experiment, non-cytotoxic concentrations of estrone derivative (10 μmol·l^−1) were used. E1 levels were determined by an immuno-enzymatic assay.

BJ = assay: MTT cytotoxicity assay, BJ fibroblasts; format: cell-based; details: Homo sapiens, non-tumor fibroblasts
Source text: as §2

U2OS = assay: MTT cytotoxicity assay, U2OS; format: cell-based; details: Homo sapiens
Source text: as §2

human 17βHSD type 1 = target: T3, human 17βHSD type 1 (Homo sapiens, UniProt P14061); assay: Inhibition of recombinant 17βHSD type 1, tritium-labeled substrate conversion; format: biochemical; details: for inhibition at 0.1 µM: 0.1 μmol · l^−1 test substance; for inhibition at 0.1 µM / inhibition at 1 µM: read-out: % of inhibition of human 17βHSD1; for inhibition at 1 µM: 1 μmol · l^−1 test substance; for pIC50: read-out: 17βHSD1 IC50
T3 construct: made in house; expressing system suspended in buffer, not purified
T3 sequence (P14061 1-328): T2 sequence (P14061 1-328)
Method: as §1

human 17βHSD1 [2] = target: T2, human 17βHSD1; assay: 17βHSD inhibition in MCF-7 cells transfected with human 17βHSD1, E1 in supernatant; format: cell-based; parameters: expressed in transfected cells; host or cells: MCF-7; details: 10 μmol·l^−1
Method: as §3

HCT116p53-/- = assay: MTT cytotoxicity assay, HCT116p53-/-; format: cell-based; details: Homo sapiens
Source text: as §2

CEM-DNR-bulk = assay: MTT cytotoxicity assay, CEM-DNR-bulk; format: cell-based
Source text: as §2

[3] = target: T4, estrogen receptor α (ERα) (Homo sapiens, UniProt P03372); assay: ERα luciferase reporter assay in U2OS cells; format: cell-based; details: testing range 10 μmol·l^−1 to 1 nmol·l^−1
T4 construct: expressed in transfected cells
T4 sequence (P03372 1-595): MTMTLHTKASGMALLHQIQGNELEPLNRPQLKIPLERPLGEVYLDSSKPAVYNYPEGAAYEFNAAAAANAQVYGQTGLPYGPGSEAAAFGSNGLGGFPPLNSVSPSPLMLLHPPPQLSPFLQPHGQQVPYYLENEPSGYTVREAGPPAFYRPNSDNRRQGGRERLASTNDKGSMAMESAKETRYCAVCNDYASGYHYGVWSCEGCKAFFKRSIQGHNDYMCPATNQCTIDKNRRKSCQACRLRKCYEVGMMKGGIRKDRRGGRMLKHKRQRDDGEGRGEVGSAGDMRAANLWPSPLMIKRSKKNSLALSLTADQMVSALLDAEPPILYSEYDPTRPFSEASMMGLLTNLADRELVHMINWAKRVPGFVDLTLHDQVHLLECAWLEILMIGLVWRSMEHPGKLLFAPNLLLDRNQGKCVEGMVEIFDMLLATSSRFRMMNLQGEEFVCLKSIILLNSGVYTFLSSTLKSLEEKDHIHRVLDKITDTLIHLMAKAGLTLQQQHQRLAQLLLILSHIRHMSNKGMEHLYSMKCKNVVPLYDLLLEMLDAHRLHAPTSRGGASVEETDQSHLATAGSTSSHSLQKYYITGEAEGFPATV

K562-Tax = assay: MTT cytotoxicity assay, K562-Tax; format: cell-based; details: Homo sapiens
Source text: as §2

CEM = assay: MTT cytotoxicity assay, CEM; format: cell-based; details: Homo sapiens, CCRF-CEM
Source text: as §2

K562 = assay: MTT cytotoxicity assay, K562; format: cell-based; details: Homo sapiens
Source text: as §2

U2OS cells = assay: Cell viability (ATP) of unmodified U2OS cells, parallel to reporter assay; format: cell-based, human
Method: To separate the antagonist activity of test compounds from the cytotoxic effect on U2OS cells (cell line derived from osteosarcoma), an experiment for determination of cell viability was performed in parallel with the reporter assay. Original, genetically unmodified U2OS cells were grown under the same conditions as the reporter cells. These cells were further treated and incubated with the compounds in a completely identical manner and for the same time as cells in the reporter assay. At the end of the experiment, the amount of ATP was determined using BriteLite luciferase homogeneous assay as a measure of cell viability. The data were then processed together with data from the reporter assays.

luciferase = luciferase (Photinus pyralis, UniProt P08659); assay: Luciferase activity in U2OS cell line constitutively expressing luciferase gene; format: cell-based; details: read-out: Luciferase activity IC50
Method: In order to distinguish between the specific, steroid hormone response elements-driven regulation of the luciferase expression and the possible effects of test compounds on the luciferase activity, compounds were tested in parallel experiment on a U2OS cell line constitutively expressing luciferase gene.
Luciferase activity was determined by a commercial kit Britelite plus a luciferase reporter gene assay reagent (Perkin Elmer, USA), 24 h after addition of compounds to cells. The intensity of luminescence was measured on an Envision multimode spectrophotometer (PerkinElmer).

17βHSD5 = target: T5, 17βHSD5 (Homo sapiens, UniProt P42330); details: cited from earlier work; for pIC50: literature
T5 sequence (P42330 1-323): T1 sequence (P42330 1-323)

Compound | % of inhibition of human 17βHSD5 (human 17βHSD type 5) [%] | pIC50 (HCT116p53 wt) | pIC50 (MRCS) | pIC50 (A549) | E1 in supernatant, CHO (human 17βHSD1 [1]; 8 hr.) [pg/mL] | E1 in supernatant, CHO (human 17βHSD1 [1]; 24 hr.) [pg/mL] | pIC50 (BJ) | melting point [°C] | pIC50 (U2OS) | inhibition at 0.1 µM (human 17βHSD type 1) [%] | inhibition at 1 µM (human 17βHSD type 1) [%] | pIC50 (human 17βHSD type 1) | E1 in supernatant, MCF-7 (human 17βHSD1 [2]; 8 hr.) [pg/mL] | E1 in supernatant, MCF-7 (human 17βHSD1 [2]; 24 hr.) [pg/mL] | pIC50 (HCT116p53-/-) | pIC50 (CEM-DNR-bulk) | pIC50 (K562-Tax) | pIC50 (CEM) | pIC50 (K562) | further results
COC(=O)c1ccc(CC[C@@H]2CC(=O)[C@@]3(C)CC[C@@H]4c5ccc(O)cc5CC[C@H]4[C@H]23)cc1 [Compound 7, Methyl 4-(2-(3-hydroxy-estra-1,3,5(10)-trien-17-on-15β-yl)ethyl)benzoate] | 63 | < 4.30 | < 4.30 | < 4.30 | 2101 | 1476 | < 4.30 | 139 | < 4.30 | 84 | 99 | 7.80 | 1921 | 1839 | < 4.30 | 4.48 | 4.90 | 4.59 | < 4.30 | ER antagonism in words [3]: ER antagonist
C[C@]12CC[C@@H]3c4ccc(O)cc4CC[C@H]3[C@@H]1[C@H](CCc1ccc(F)cc1)CC2=O [Compound 5, 15β-(4-Fluorophenethyl)-3-hydroxy-estra-1,3,5(10)-trien-17-one] | 70 | 4.53 | 4.74 | 4.45 | 3194 | 1576 | 4.62 | 164 | 4.52 | 72 | 92 | 7.26 | 3373 | 2236 | 4.52 | 4.55 | 4.71 | 4.60 | 4.60 | –
4-hydroxytamoxifen [Compound 4-OHT, reference compound] | – | – | – | – | – | – | – | – | – | – | – | – | – | – | – | – | – | – | – | pIC50 (U2OS cells): 4.92; pIC50 (luciferase): 4.99
3-deoxyestradiol with C-17-dimethyl-spiro-δ-lactone | – | – | – | – | – | – | – | – | – | – | – | – | – | – | – | – | – | – | – | pIC50 (17βHSD5): 8.54
CC1(C)CCC2(CCC3C4CCc5cc(C(N)=O)ccc5C4CCC32C)OC1=O [EM1404, 3-carboxamido-1,3,5-(10)-estratrien-17(R)-spiro-2-(5,5-dimethyl-6-oxo)tetra-hydro-pyran] | – | – | – | – | – | – | – | – | – | – | – | – | – | – | – | – | – | – | – | pKi (17βHSD5; Qiu et al. 2007, WO9946279): 8.16; pIC50 (17βHSD5): 8.49
Cc1ccc(CC[C@@H]2CC(=O)[C@@]3(C)CC[C@@H]4c5ccc(O)cc5CC[C@H]4[C@H]23)cc1 [Compound 15, 3-Hydroxy-15β-(4-methylphenethyl)-estra-1,3,5(10)-trien-17-one] | 86 | 4.55 | 4.71 | 4.55 | 750 | 554 | 4.55 | 159 | 4.54 | 87 | 100 | 8.10 | 719 | 948 | 4.53 | 4.62 | 4.86 | 4.66 | 4.62 | –
C[C@]12CC[C@@H]3c4ccc(O)cc4CC[C@H]3[C@@H]1[C@H](CCc1ccc(Cl)cc1)CC2=O [Compound 6, 15β-(4-Chlorophenethyl)-3-hydroxy-estra-1,3,5(10)-trien-17-one] | 90 | 4.53 | 4.68 | 4.45 | 4137 | 1804 | 4.54 | 168 | 4.55 | 90 | 97 | 8.05 | 4251 | 3323 | 4.51 | 4.61 | 4.88 | 4.79 | 4.57 | –
CC#C[C@]1(O)CC[C@H]2[C@@H]3CCC4=CC(=O)CCC4=C3[C@@H](c3ccc(N(C)C)cc3)C[C@@]21C [RU486, reference compound] | – | – | – | – | – | – | – | – | – | – | – | – | – | – | – | – | – | – | – | pIC50 (U2OS cells; Homo sapiens): 4.32; pIC50 (luciferase): 4.75
